Results published in patent US20210236840A1, “COMBINED SONODYNAMIC AND PHOTODYNAMIC THERAPY TO TREAT DEEP SEATED CANCER AND OTHER HYPERPOLIFERATIVE DISEASE AND ULTRASOUND AND LIGHT TRIGGERED RELEASE OF NEAR INFRARED PHOTOSENSITIZERS AND CHEMOTHERAPY AGENTS FROM POLYACRLAMIDE BASED NANOPARTICLES” (Photolitec, LLC, priority 2020, published 2021).

Legend:
U87 Glioma xenografts = test: In vivo PDT and PDT-SDT combination response; settings: PDT alone; SCID mice bearing U87 Glioma xenografts
U87 tumors = test: Long-term tumor cure by Photobac-PDT; type: in vivo, SCID mice; settings: laser light at 787 nm; for CR: 60 days
Procedure: Analysis of anticancer efficacy of Photobac was injected in tumor-bearing mice and treated with the laser light at 787 nm. Tumor cure was monitored for 60 days post-laser treatment. […] Photobac is being developed for the treatment of glioblastoma by Photolitec, LLC (a spin-off of RPCI) has received an ORPHAN DRUG STATUS from FDA.
Long-term tumor cure by Photobac-PDT on treating nude mice (female) bearing U87 tumors (shoulder) at variable drug doses. The tumors were exposed with light (787 nm, 135 J/cm^2, 75 mW/cm^2) at 24 h post injection. Comparative long-term cure of Photobac-PDT treatment in both and female SCID mice bearing U87 tumors (shoulder) under similar treatment parameters (drug dose: 0.75 μmol/kg; light dose: 135 J/cm^2, 75 mW/cm^2.

[1] = test system: Colon 26 tumors and U87 tumors; test: Photobac-PDT vascular shutdown, CD31 staining of tumor sections; type: in vivo, BALB/C mice; nude mice; settings: 787 nm, 135 J/cm2, 75 mW/cm2 at 24 h post-injection; 0.25 μmol/kg (Colon 26) or 0.75 μmol/kg (U87)

Compound | complete response (U87 Glioma xenografts) | mice tumor free up to 60 days (U87 tumors; female SCID mice) | CR (U87 tumors; female SCID mice) | mice tumor free up to 60 days (U87 tumors; male mice) | CR (U87 tumors; male mice) | vascular effect of PDT [1]
CCCCCCOC(C)c1c(C)c2cc3nc(c4c5[nH]c(cc6nc(cc1[nH]2)C(C)=C6CC)c(C)c5C(=O)C4)[C@@H](CCC(=O)O)[C@@H]3C (stereo partly drawn) [HPPH, 2-(1-Hexyloxyethyl)-2-devinyl pyropheophorbide-a] | 37% | – | – | – | – | –
CCCCOC(C)C1=C(C)c2cc3nc(c4c5[nH]c(cc6[nH]c(cc1n2)[C@H](C)[C@H]6CC)c(C)c5C(=O)N(CCCC)C4=O)[C@@H](CCC(=O)OC)[C@@H]3C (stereo partly drawn) [Photobac, bacteriopurpurinimide] | – | 4/5 | 80% | 4/7 | 60% | causes vascular shutdown
